Activity calls are given as the source filed them. The calls are words filed in the database; no cut-off is given here.
Legend:
[1] = target: T1, Lon protease homolog, mitochondrial (Homo sapiens, UniProt P36776); experiment: Inhibition of LONP1 (unknown origin) using QXL520-YRGITCSGRQK(5-FAM)-NH2 peptide as substrate incubated for 50 mins in presence of ATP by HTRF assay
T1 sequence (P36776 whole entry): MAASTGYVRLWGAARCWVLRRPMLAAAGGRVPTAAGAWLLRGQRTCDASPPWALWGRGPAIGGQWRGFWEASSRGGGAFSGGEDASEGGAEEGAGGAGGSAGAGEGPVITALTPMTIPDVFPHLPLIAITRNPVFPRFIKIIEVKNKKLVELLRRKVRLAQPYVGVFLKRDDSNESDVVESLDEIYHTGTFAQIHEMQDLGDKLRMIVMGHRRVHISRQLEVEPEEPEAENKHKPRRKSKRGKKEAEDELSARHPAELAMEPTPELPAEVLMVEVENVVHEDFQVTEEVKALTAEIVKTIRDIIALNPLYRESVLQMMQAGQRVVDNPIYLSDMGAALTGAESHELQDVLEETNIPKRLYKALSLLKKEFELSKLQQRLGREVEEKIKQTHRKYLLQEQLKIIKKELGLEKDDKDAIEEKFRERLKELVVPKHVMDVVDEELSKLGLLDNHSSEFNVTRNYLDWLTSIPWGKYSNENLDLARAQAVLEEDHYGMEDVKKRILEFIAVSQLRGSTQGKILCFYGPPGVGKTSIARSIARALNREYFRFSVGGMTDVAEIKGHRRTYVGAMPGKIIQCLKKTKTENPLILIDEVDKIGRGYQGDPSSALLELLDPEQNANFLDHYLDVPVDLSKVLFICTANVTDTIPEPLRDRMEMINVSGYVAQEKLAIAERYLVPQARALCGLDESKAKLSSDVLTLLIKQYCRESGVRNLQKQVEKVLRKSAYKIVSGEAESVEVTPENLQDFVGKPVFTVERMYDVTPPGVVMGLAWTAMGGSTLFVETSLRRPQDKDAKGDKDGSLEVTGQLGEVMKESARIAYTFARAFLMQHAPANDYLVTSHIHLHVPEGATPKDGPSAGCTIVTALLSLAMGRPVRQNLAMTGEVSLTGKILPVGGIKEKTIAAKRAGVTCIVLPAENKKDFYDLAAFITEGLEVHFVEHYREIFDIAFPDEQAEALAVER

20S proteasome = experiment: Inhibition of human erythrocytes 20S proteasome using QXL520-YRGITCSGRQK(5-FAM)-NH2 fluorogenic peptide as substrate preincubated for 10 mins followed by substrate addition and measured after 60 mins by HTRF assay; conditions: erythrocyte
[2] = target: T2, Cobalamin trafficking protein CblD (Homo sapiens) (UniProt Q9H3L0); experiment: Binding affinity to MMADHC in human Flp-In-T-REx-293 stably expressing 3X-FLAG-tagged LOPN1 assessed as increase in protein abundance by mass spectrometric analysis
T2 sequence (whole entry): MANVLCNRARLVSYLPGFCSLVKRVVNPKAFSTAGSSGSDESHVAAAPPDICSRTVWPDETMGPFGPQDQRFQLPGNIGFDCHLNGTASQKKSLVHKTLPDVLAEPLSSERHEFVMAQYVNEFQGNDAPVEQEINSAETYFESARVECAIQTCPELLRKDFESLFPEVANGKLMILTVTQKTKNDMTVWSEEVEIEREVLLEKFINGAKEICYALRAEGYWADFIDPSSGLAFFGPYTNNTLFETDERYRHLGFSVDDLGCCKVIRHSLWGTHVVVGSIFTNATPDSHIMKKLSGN

[3] = target: T2, Cobalamin trafficking protein CblD (Homo sapiens); experiment: Binding affinity to MMADHC in human LONP1 dependent Calu-6 cells assessed as increase in protein abundance by HTRF assay relative to control
[4] = target: T2, Cobalamin trafficking protein CblD (Homo sapiens); experiment: Binding affinity to MMADHC in human LONP1 dependent NCI-H1944 cells assessed as increase in protein abundance at 10 uM by WES analysis relative to control; format: cell-based
[5] = target: T2, Cobalamin trafficking protein CblD (Homo sapiens); experiment: Binding affinity to MMADHC in human LONP1 dependent NCI-H1568 cells assessed as increase in protein abundance relative to control; format: cell-based

IC50 [1] [nM]	IC50 (20S proteasome) [nM]	Activity [2]	fold change (FC) [3]	fold change (FC) [4]	fold change (FC) [5]	Structure (SMILES)
187	> 10000	–	–	–	–	CCC[C@@H](NC(=O)c1cnccn1)C(=O)N[C@@H](CC(C)C)B(O)O
109	679	–	–	–	–	O=C(N[C@H](Cc1ccccc1)C(=O)N[C@@H](Cc1ccccc1)B(O)O)c1cnccn1
433	2680	–	–	–	–	CC(C)C[C@H](NC(=O)[C@@H](C)NC(=O)c1cnccn1)B(O)O
92	> 10000	–	–	–	–	CCC[C@@H](NC(=O)c1cnccn1)C(=O)N[C@@H](CCc1ccccc1)B(O)O
556	> 10000	–	–	–	–	CCC[C@@H](NC(=O)c1cnccn1)C(=O)N[C@@H](Cc1ccccc1)B(O)O
38	> 10000	–	–	–	–	CCCC[C@H](NC(=O)[C@@H](CCC)NC(=O)c1cnccn1)B(O)O
408	> 10000	–	–	–	–	CC[C@@H](NC(=O)c1cnccn1)C(=O)N[C@@H](CC(C)C)B(O)O
65	1040	–	–	–	–	CC(C)CCC[C@H](NC(=O)[C@@H](Cc1ccccc1)NC(=O)c1cnccn1)B(O)O
136	> 10000	–	–	–	–	CCC[C@@H](NC(=O)c1cnccn1)C(=O)N[C@@H](CC1CCCCC1)B(O)O
59	> 10000	Active	30	30	30	CCC[C@@H](NC(=O)c1oc(C)nc1C)C(=O)N[C@@H](CCCc1ccccc1)B(O)O
77	1940	–	–	–	–	O=C(N[C@H](Cc1ccccc1)C(=O)N[C@@H](CCCCCBr)B(O)O)c1cnccn1
2850	> 10000	–	–	–	–	CC(C)C[C@H](NC(=O)[C@H](NC(=O)c1cnccn1)C(C)(C)C)B(O)O
546	3970	–	–	–	–	CC(C)C[C@H](NC(=O)[C@H](NC(=O)c1cnccn1)C(C)C)B(O)O
93	> 10000	–	–	–	–	CCCC[C@@H](NC(=O)c1cnccn1)C(=O)N[C@@H](CC(C)C)B(O)O
6200	–	–	–	–	–	CC(C)C[C@H](NC(=O)C(C)(C)NC(=O)c1cnccn1)B(O)O
137	843	–	–	–	–	CC(C)C[C@H](NC(=O)[C@@H](CC1CCCCC1)NC(=O)c1cnccn1)B(O)O
92	541	–	–	–	–	O=C(N[C@H](Cc1ccccc1)C(=O)N[C@@H](CC1CCCCC1)B(O)O)c1cnccn1
17	> 10000	–	–	–	–	CCC[C@@H](NC(=O)c1cnccn1)C(=O)N[C@@H](CCCc1ccccc1)B(O)O
18	259	–	–	–	–	O=C(N[C@H](Cc1ccccc1)C(=O)N[C@@H](CCCc1ccccc1)B(O)O)c1cnccn1
34	262	–	–	–	–	O=C(N[C@H](Cc1ccccc1)C(=O)N[C@@H](CCc1ccccc1)B(O)O)c1cnccn1
